Data taken from patent publication US7671054B1, “Reverse-turn mimetics and method relating thereto” (Choongwae Pharma Corporation, priority 2001, dated 2010).
Like-named read-outs stand apart in the source and are kept apart here.

Legend:
[1] = tested on: SW480 cells; test: Growth inhibition assay (MTS); format: cell-based; conditions: Homo sapiens, read-out: Growth Inhibition (GI50, uM) SW480
Method in brief: (§1)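 Cells seeded at 10^4 per well, grown 24 h at 37° C, then exposed to compound at various concentrations for 48 hours. MTS added for 2 h; absorbance at 490 nm gave viability, with cytotoxicity calculated per concentration against pre-treatment reading.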

[2] = tested on: HCT116 cells; test: Growth inhibition assay (MTS); format: cell-based; conditions: Homo sapiens, read-out: Growth Inhibition (GI50, uM) HCT116
Method in brief: as §1

[3] = SW480, 48 h, Table 5, SW480 cells, 48 hours treatment, MTS
[4] = HCT-116, 48 h, Table 5, HCT116 cells, 48 hours treatment, MTS
[5] = Table 5, SW480 cells, 48 hours treatment, MTS
[6] = HCT-116, Table 5, HCT116 cells, 48 hours treatment, MTS

Structure (SMILES) | GI50 [1, 3] | GI50 [2, 4] | other results
C=CCN1CC(=O)N2[C@@H](Cc3ccc(O)cc3)C(=O)N(Cc3cccc4c3N(C)CCO4)C[C@@H]2N1C(=O)NCc1ccccc1 [Compound 117] | 0.6 ± 0.1 µM | 0.3 ± 0.02 µM | –
C#CCN1CC(=O)N2[C@@H](Cc3ccc(O)cc3)C(=O)N(Cc3ccc4c(c3)OCCN4C)C[C@@H]2N1C(=O)NCc1ccccc1 [Compound 118] | 21.2 ± 1.5 µM | 23.2 ± 2.8 µM | –
C=CCN1CC(=O)N2[C@@H](Cc3ccc(O)cc3)C(=O)N(Cc3ccc4c(c3)OCCN4C)C[C@@H]2N1C(=O)NCc1ccccc1 [Compound 119] | 10 ± 1.3 µM | 9.5 ± 1.1 µM | –
CCCN1CC(=O)N2[C@@H](Cc3ccc(O)cc3)C(=O)N(Cc3ccc(Cl)c4cccnc34)C[C@@H]2N1C(=O)NCc1ccccc1 [Compound 120] | 1.8 ± 0.2 µM | 2.6 ± 0.1 µM | –
CN1CC(=O)N2[C@@H](Cc3ccc(O)cc3)C(=O)N(Cc3cccc(N4CCCC4=O)c3)C[C@@H]2N1C(=O)NCc1ccccc1 [Compound 121] | 8.2 ± 0.5 µM | 13.1 ± 0.6 µM | –
C=CCN1CC(=O)N2[C@@H](Cc3ccc(O)cc3)C(=O)N(Cc3cccc(N4CCCC4)c3)C[C@@H]2N1C(=O)NCc1ccccc1 [Compound 125] | 2.2 ± 0.3 µM | 1.9 ± 0.2 µM | –
C=CCN1CC(=O)N2[C@@H](Cc3ccc(O)cc3)C(=O)N(Cc3cc(N(C)C(C)C)cc(C(F)(F)F)c3)C[C@@H]2N1C(=O)NCc1ccccc1 [Compound 126] | 19.4 ± 3 µM | 11.6 ± 3 µM | –
CCCN1CC(=O)N2[C@@H](Cc3ccc(O)cc3)C(=O)N(Cc3ccc(F)cc3F)C[C@@H]2N1C(=O)NCc1ccccc1 [Compound 127] | 4.9 ± 0.7 µM | 4.3 ± 0.7 µM | –
C=CCN1CC(=O)N2[C@@H](Cc3ccc(O)cc3)C(=O)N(Cc3cccc4c3OCCN4C)C[C@@H]2N1C(=O)NCc1ccccc1 [Compound 128] | 0.9 ± 0.1 µM | 1 ± 0.03 µM | –
C=CCN1CC(=O)N2[C@@H](Cc3ccc(NC=O)cc3)C(=O)N(Cc3ccc(F)cc3F)C[C@@H]2N1C(=O)NCc1ccccc1 [Compound 129] | 2.9 ± 0.5 µM | 3.1 ± 0.3 µM | –
CCCN1CC(=O)N2[C@@H](Cc3ccc(NC=O)cc3)C(=O)N(Cc3ccc(F)cc3F)C[C@@H]2N1C(=O)NCc1ccccc1 [Compound 130] | 17.3 ± 1.2 µM | 10.7 ± 1.7 µM | –
C=CCN1CC(=O)N2[C@@H](Cc3ccc(OP(=O)(O)O)cc3)C(=O)N(Cc3ccc(Cl)c(N(C)C)c3)C[C@@H]2N1C(=O)NCc1ccccc1 [Compound 131] | – | – | GI50 [1, 5]: 2.3 ± 0.1 µM; GI50 [2, 6]: 1.7 ± 0.5 µM
C=CCN1CC(=O)N2[C@@H](Cc3ccc(O)cc3)C(=O)N(Cc3cc(F)c(F)cc3N(C)C)C[C@@H]2N1C(=O)NCc1ccccc1 [Compound 132] | 2.5 ± 0.1 µM | 2.2 ± 1.2 µM | –
C=CCN1CC(=O)N2[C@@H](Cc3ccc(OP(=O)(O)O)cc3)C(=O)N(Cc3cc(F)c(F)cc3N(C)C)C[C@@H]2N1C(=O)NCc1ccccc1 [Compound 133] | – | – | GI50 [1, 5]: 2.3 ± 0.1 µM; GI50 [2, 6]: 2.1 ± 1.8 µM
C=CCN1CC(=O)N2[C@@H](Cc3ccc(O)cc3)C(=O)N(Cc3ccccc3)C[C@@H]2N1C(=O)NCc1ccccc1 [Compound 134] | 1.4 ± 0.4 µM | 0.8 ± 0.7 µM | –
[2H]C([2H])(c1ccc(O)cc1)[C@H]1C(=O)N(Cc2cccc3ccccc23)C[C@H]2N1C(=O)CN(C)N2C(=O)NCc1ccccc1 [Compound 135] | 3.2 ± 0.4 µM | 3.1 ± 0.8 µM | –
[2H]c1cc(C[C@H]2C(=O)N(Cc3cccc4ccccc34)C[C@H]3N2C(=O)CN(C)N3C(=O)NCc2ccccc2)cc([2H])c1O [Compound 136] | 3.4 ± 0.4 µM | 3 ± 0.9 µM | –
C=CCN1CC(=O)N2[C@@H](Cc3ccc(O)cc3)C(=O)N(Cc3cc(C)cc4c3N(C)CCO4)C[C@@H]2N1C(=O)NCc1ccccc1 [Compound 137] | 1.4 ± 0.4 µM | 1.3 ± 0.3 µM | –
CCCN1CC(=O)N2[C@@H](Cc3ccc(O)cc3)C(=O)N(Cc3ccccc3)C[C@@H]2N1C(=O)NCc1ccccc1 [Compound 138] | 4 ± 0.4 µM | 3.9 ± 0.7 µM | –
C=CCN1CC(=O)N2[C@@H](Cc3ccc(OP(=O)(O)O)cc3)C(=O)N(Cc3cccc4c3OCCN4C)C[C@@H]2N1C(=O)NCc1ccccc1 [Compound 139] | – | – | GI50 [1, 5]: 1.2 ± 0.1 µM; GI50 [2, 6]: 1 ± 0.2 µM
C=CCN1CC(=O)N2C(Cc3ccc(O)cc3)C(=O)N(Cc3ccc(F)cc3F)CC2N1C(=O)NCc1ccccc1 (stereo not shown) [Compound 140] | 1.6 ± 0.5 µM | 1.7 ± 0.1 µM | –
C=CCOC(=O)NCCCC[C@H]1C(=O)N(Cc2ccc(Cl)c(Cl)c2)C[C@H]2N1C(=O)CN(C)N2C(=O)NCc1ccccc1 [Compound 141] | 35 ± 11 µM | 21 ± 2.6 µM | –
[2H]c1cc(O)cc([2H])c1C[C@H]1C(=O)N(Cc2cccc3ccccc23)C[C@H]2N1C(=O)CN(C)N2C(=O)NCc1ccccc1 [Compound 142] | 3.2 ± 0.3 µM | 3.3 ± 0.4 µM | –
C=CCN1CC(=O)N2[C@@H](Cc3ccc(OC(=O)NCCN(C)C)cc3)C(=O)N(Cc3ccc(F)cc3F)C[C@@H]2N1C(=O)NCc1ccccc1 [Compound 143] | – | – | GI50 ([1]; SW480, 48 h): 1.2 ± 0.1 µM; GI50 ([2]; HCT-116, 48 h): 1.2 ± 0.1 µM

Structure (SMILES) | GI50 [1, 3] | GI50 [2, 4] | other results
C=CCN1CC(=O)N2[C@@H](Cc3ccc(OP(=O)(O)O)cc3)C(=O)N(Cc3ccccc3)C[C@@H]2N1C(=O)NCc1ccccc1 [Compound 144] | – | – | GI50 [1, 5]: 0.5 ± 0.03 µM; GI50 [2, 6]: 0.6 ± 0.1 µM
C=CCN1CC(=O)N2[C@@H](Cc3ccc(O)cc3)C(=O)N(Cc3ccc(F)cc3F)C[C@@H]2N1C(=O)NCc1ccc(F)cc1 [Compound 145] | 6.4 ± 0.1 µM | 5.9 ± 0.3 µM | –
CC(C)N1CC(=O)N2[C@@H](Cc3ccc(O)cc3)C(=O)N(Cc3ccc(F)cc3F)C[C@@H]2N1C(=O)NCc1ccccc1 [Compound 146] | 3.7 ± 0.5 µM | 4 ± 0.5 µM | –
C=CCN1CC(=O)N2[C@@H](Cc3ccc(O)cc3)C(=O)N(Cc3ccc(F)c(F)c3)C[C@@H]2N1C(=O)NCc1ccccc1 [Compound 148] | 1.3 ± 0.1 µM | 1 ± 0.3 µM | –
C=CCN1CC(=O)N2[C@@H](Cc3ccc(O)cc3)C(=O)N(Cc3ccc(F)cc3F)C[C@@H]2N1C(=O)NCc1ccc(Cl)c(Cl)c1 [Compound 149] | 2.3 ± 0.1 µM | 2.3 ± 0.4 µM | –
C=CCN1CC(=O)N2[C@@H](Cc3ccc(O)cc3)C(=O)N(Cc3ccc(Cl)c(Cl)c3)C[C@@H]2N1C(=O)NCc1ccccc1 [Compound 150] | 1.3 ± 0.1 µM | 1.4 ± 0.2 µM | –
C=CCN1CC(=O)N2[C@@H](CC3(O)C=CC(=O)C=C3)C(=O)N(Cc3ccc(F)cc3F)C[C@@H]2N1C(=O)NCc1ccccc1 [Compound 151] | 11.2 ± 1.3 µM | 8.6 ± 0.9 µM | –
C=CCN1CC(=O)N2[C@@H](Cc3ccc(O)cc3)C(=O)N(Cc3cccc4scnc34)C[C@@H]2N1C(=O)NCc1ccccc1 [Compound 152] | 0.7 ± 0.1 µM | 0.6 ± 0.1 µM | –
C=CCN1CC(=O)N2[C@@H](Cc3ccc(O)cc3)C(=O)N([C@H](C)c3ccccc3)C[C@@H]2N1C(=O)NCc1ccccc1 [Compound 153] | 12.8 ± 1.6 µM | 14.3 ± 7 µM | –
C=CCN1CC(=O)N2[C@@H](CN([C@H](C)c3ccccc3)C(=O)[C@@H]2Cc2ccc(O)cc2)N1C(=O)NCc1ccccc1 [Compound 154] | 0.7 ± 0.2 µM | 0.7 ± 0.2 µM | –
C=CCN1CC(=O)N2[C@@H](Cc3ccc(O)cc3)C(=O)N([C@@H](C)c3ccc(Cl)c4cccnc34)C[C@@H]2N1C(=O)NCc1ccccc1 [Compound 155] | 26.3 ± 2.5 µM | 23.3 ± 1.2 µM | –
C=CCN1CC(=O)N2[C@@H](Cc3ccc(O)c(F)c3)C(=O)N(Cc3ccc(F)cc3)C[C@@H]2N1C(=O)NCc1ccccc1 [Compound 156] | 3.7 ± 0.3 µM | 3.8 ± 0.2 µM | –
C=CCN1CC(=O)N2[C@@H](Cc3ccc(O)cc3)C(=O)N(Cc3ccc4c(c3)OCCO4)C[C@@H]2N1C(=O)NCc1ccccc1 [Compound 157] | 1 ± 0.2 µM | 1.2 ± 0.1 µM | –
C=CCN1CC(=O)N2[C@@H](CN([C@H](C)c3ccc(Cl)c4cccnc34)C(=O)[C@@H]2Cc2ccc(O)cc2)N1C(=O)NCc1ccccc1 [Compound 159] | 9.1 ± 0.5 µM | 8.2 ± 0.4 µM | –
C=CCN1CC(=O)N2[C@@H](Cc3ccc(O)cc3)C(=O)N([C@@H](C)c3cccc4cccnc34)C[C@@H]2N1C(=O)NCc1ccccc1 [Compound 160] | 13.7 ± 0.5 µM | 10.1 ± 1.3 µM | –
C=CCN1CC(=O)N2[C@@H](CN([C@H](C)c3cccc4cccnc34)C(=O)[C@@H]2Cc2ccc(O)cc2)N1C(=O)NCc1ccccc1 [Compound 161] | 4.2 ± 0.4 µM | 4.1 ± 0.5 µM | –
C=CCN1CC(=O)N2[C@@H](Cc3ccc(O)cc3)C(=O)N(Cc3cccc(N(C)C)c3)C[C@@H]2N1C(=O)NCc1ccccc1 [Compound 162] | 1 ± 0.3 µM | 1.3 ± 0.7 µM | –
C=CCN1CC(=O)N2[C@@H](Cc3ccc(O)cc3)C(=O)N(Cc3cccc(NC)c3)C[C@@H]2N1C(=O)NCc1ccccc1 [Compound 163] | 2.4 ± 0.2 µM | 2.3 ± 0.4 µM | –
C=CCN1CC(=O)N2[C@@H](Cc3ccc(O)cc3)C(=O)N(Cc3cccc(N(C)C(=O)CCCCC)c3)C[C@@H]2N1C(=O)NCc1ccccc1 [Compound 164] | 3 ± 0.3 µM | 2.9 ± 0.4 µM | –
C[C@H](c1ccc(F)cc1F)N1C[C@H]2N(C(=O)CN(C)N2C(=O)NCc2ccccc2)[C@@H](Cc2ccc(O)cc2)C1=O [Compound 165] | 22.8 ± 0.9 µM | 24.4 ± 1.9 µM | –
C[C@@H](c1ccc(Cl)c2cccnc12)N1CC2N(C(=O)CN(C)N2C(=O)NCc2ccccc2)[C@@H](Cc2ccc(O)cc2)C1=O (stereo partly shown) [Compound 166] | 27.9 ± 4.7 µM | 25.2 ± 3.2 µM | –
C=CCN1CC(=O)N2[C@@H](Cc3ccc(OP(=O)(O)O)cc3)C(=O)N(Cc3cccc4scnc34)C[C@@H]2N1C(=O)NCc1ccccc1 [Compound 167] | – | – | GI50 [1, 5]: 0.3 ± 0.02 µM; GI50 [2, 6]: 0.2 ± 0.02 µM
C[C@H](c1ccc(Cl)c2cccnc12)N1CC2N(C(=O)CN(C)N2C(=O)NCc2ccccc2)[C@@H](Cc2ccc(O)cc2)C1=O (stereo partly shown) [Compound 168] | 6.2 ± 0.8 µM | 6.5 ± 0.3 µM | –
